Like-named read-outs stand apart in the source and are kept apart here.

This note sets out measurements from paper PMC12419465, “Photoresponsive molecular tweezers modulate Taspase 1 activity” (RSC Chemical Biology, 2025).

Test [1] has as its target T1, full-length, proteolytically inactive Taspase 1 (Homo sapiens, UniProt Q9H6P5, D233A/T234A).
T1 sequence (Q9H6P5 1-420 D233A/T234A): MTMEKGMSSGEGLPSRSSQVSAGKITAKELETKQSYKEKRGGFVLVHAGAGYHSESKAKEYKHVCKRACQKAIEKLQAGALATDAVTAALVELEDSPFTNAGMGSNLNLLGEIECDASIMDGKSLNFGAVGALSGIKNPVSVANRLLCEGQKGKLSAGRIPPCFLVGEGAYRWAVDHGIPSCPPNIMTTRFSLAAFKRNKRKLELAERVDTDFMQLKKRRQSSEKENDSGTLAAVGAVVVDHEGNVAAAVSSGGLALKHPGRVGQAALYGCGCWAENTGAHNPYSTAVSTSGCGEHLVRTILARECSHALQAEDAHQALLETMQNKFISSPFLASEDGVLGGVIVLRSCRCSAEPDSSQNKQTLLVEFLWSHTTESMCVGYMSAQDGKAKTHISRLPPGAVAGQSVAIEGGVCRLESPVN
As to the kind of experiment: Surface plasmon resonance on immobilized full-length, inactive Taspase 1. It is filed as binding. The conditions noted are these: for ka / kd: Table S3, n = 2. The method, then: SPR measurements were conducted as described.[9,10]
First, we utilized an established surface plasmon resonance (SPR) assay to evaluate the overall binding of our ligands to Taspase 1 (Fig. 3).[10,54] […] High affinities were observed, with KD values in the single micromolar range (Fig. 3, and Table S2).
Fig. 3 Photoswitchable tweezer constructs bind Taspase 1 with SPR binding affinities in the low micromolar range. […] Duplicate measurements were performed, with the respective curves shown in the same colour at different brightness levels (right). […] KD values (Table S2) were determined through kinetic evaluation by fitting the individual curves to a 1 : 1 binding model. Detailed SPR data are provided in the SI (Table S3). Composed with https://BioRender.com. […] No printed text gives the condition. In each entry the first value is the upper row and the second is the lower row.
Supplementary Table S3. Kinetic parameters of photoswitchable tweezer constructs as determined by SPR (see Fig. 3). Values were derived from fitted sensorgrams with a 1:1 two state binding model from n = 2 measurements for the indicated constructs. Analysis was performed using the Trace Drawer software 1.9.2 (TraceDrawer Software, Sweden). […]
(Surface plasmon resonance follows binding to a sensor surface in real time, without labels.)

Test [2] deals with T2, Taspase 1/Importin α interaction (Homo sapiens, UniProt Q9H6P5, D233A/T234A).
T2 construct: with full-length Taspase 1 in the recombinant pull-down assay
T2 sequence (Q9H6P5 1-420 D233A/T234A): T1 sequence (Q9H6P5 1-420 D233A/T234A)
In words: Recombinant pull-down assay, GST-Importin α bait and Taspase 1-His prey. The format is biochemical. The conditions noted are these: percentage of the PPI of Importin α with full-length Taspase 1, ligand conc. 25 µM, n = 3. The method, then:
Pull-down assay: recombinant pull-down assays were performed as described.[9,10] For details on the assay workflow, see SI (Fig. S6).
Pull-down assays were conducted with 100 μM of TWAAP3 in either its Z or E isomer form or left untreated (un.), omitting the ligand. […] To achieve the respective Z or E isomer, TWAAP3 was irradiated with UV light (365 nm) or green light (520 nm) prior to incubation. All samples contained 3% DMSO during ligand incubation. Negative controls included samples lacking either GST-Importin α (-Iα) or Taspase 1 (-T). *, p < 0.05, t-test. Composed with https://BioRender.com.
Figure S6. Controls for pull-down assays with TWAAP constructs. A. Schematic assay
representation: GST -Importin α was immobilized on a glutathione -coated Sepharose matrix in a spin
column. After GST binding, Taspase 1-His pre-incubated with tweezer constructs was added. […]

For test [3], the target named is T3, Cy5-labeled Taspase 1 loop (Homo sapiens, UniProt Q9H6P5).
T3 construct: Cy5-labeled NLS-bearing loop peptide (aa S181-D233); purchased GeneCust; host or cells: synthetic peptide
T3 sequence (Q9H6P5 181-233): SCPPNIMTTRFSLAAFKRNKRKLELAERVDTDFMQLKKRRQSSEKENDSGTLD
As to the kind of experiment: Fluorescence titration of Cy5-labeled Taspase 1 loop. It is filed as binding. The conditions noted are these: for Kd: 1:1 binding model, n = 3, read-out: KD TW (fluorescence titration, loop). As to the method: Fluorescence titration was conducted with a Taspase 1 loop with an N-terminal […] synthesized by GeneCust (Sequence: Cy5-[…]; NLS in bold) as described.[9,10] The fluorescence anisotropy assay was modified based on previously established protocols.[51] Measurements were conducted using an FP-8300 JASCO fluorescence spectrometer (JASCO GmbH). […] Binding curves of the average data were fitted with GraphPad Prism 10.4 (GraphPad) using the quadratic binding equation for one-site specific binding model: [drawing 4] with r = anisotropy, r0 = anisotropy without protein, rmax = maximum anisotropy, F = fluorescent probe (Cy5-labeled peptide) concentration, x = titrant concentration, KD = dissociation constant. All fitting curves have R^2-values between 0.88 and 0.98.
Since Importin binding critically depends on the basic NLS clusters within the Taspase 1 loop, pull-down assays typically provide a reliable readout for tweezer interaction with the relevant lysine and arginine residues. Alternatively, loop binding can be evaluated through ligand titration experiments using a fluorescently labeled Taspase 1 loop (Fig. 5).[10] […] As a result, potential effects related to the orientation of the flexible loop within the context of the globular protein are not captured. Of note, the slight increase in signal at the highest compound concentration likely reflects non-specific effects such as weak autofluorescence, inner filter artifacts, or molecular crowding, highlighting limitations of the assay at this range. Despite these effects, the data points were retained to provide a complete representation of the assay response.
Fig. 5 TWAAP ligands directly address the Taspase 1 loop. Fluorescence titrations were performed using a Cy5-labeled Taspase 1 loop and switchable tweezers. […] Fluorescence intensity in solvent-treated samples was set to 100%, with ligand-treated samples normalized to this value. […] As a control, all ligands were added to Cy5 (without peptide) at their highest concentration, resulting in neglectable changes in fluorescence. Data represent the mean ± SD of three independent experiments. Composed with https://Biorender.com.

The mark [4] stands for this setting: E enriched isomer, Table S2, read-out: KD (E).
Setting [5] is: E isomer, ligand conc. 0.06 - 25 µM, Table S4, read-out: KD TW (SPR, full-length protein).
Setting [6] is: Z enriched isomer, Table S2, read-out: KD (Z).
The mark [7] stands for this setting: Z isomer, ligand conc. 0.06 - 25 µM, Table S4, read-out: KD TW (SPR, full-length protein).

For `Cc1nn(-c2ccc(-c3cn(CCOP(=O)(O)Oc4c5c(c(OP(=O)(O)O)c6c4C4CC6c6cc7c(cc64)C4CC7c6ccccc64)C4CC5c5cc6c(cc54)C4CC6c5ccccc54)nn3)cc2)c(C)c1N=Nc1ccc(-c2ccc(-c3cn(CCOP(=O)(O)Oc4c5c(c(OP(=O)(O)O)c6c4C4CC6c6cc7c(cc64)C4CC7c6ccccc64)C4CC5c5cc6c(cc54)C4CC6c5ccccc54)nn3)cc2)cc1` [TWAAP3], the Kd turned out to be 4.05 µM in test [1] (setting [4]); 4.1 µM in test [1] (setting [5]); 2.67 µM in test [1] (setting [6]); 2.7 µM in test [1] (setting [7]); 0.4 µM in test [3] (E isomer); 0.6 µM in test [3] (Z isomer). Moreover, the figures for the SPR signal result in test [1] (E isomer) and in test [1] (Z isomer) were “approximately 120 μRIU” and “about 500 μRIU”, respectively. Moreover, the entries for the “association rate constant (ka)” value in test [1] (E isomer) and in test [1] (Z isomer) were 3.81 × 10^3 M^1 s^1 and 9.57 × 10^2 M^1 s^1, respectively. Besides, the “dissociation rate constant (kd)” value in test [1] (E isomer) is reported as 1.53 × 10^−2 s^1; in test [1] (Z isomer), 2.56 × 10^−3 s^1. The figures for the ka in test [1] (isomer E) and in test [1] (isomer Z) were 957 ± 56.1 M⁻¹ s⁻¹ and 3810 ± 2090 M⁻¹ s⁻¹, respectively. The kd in test [1] (isomer E) is 0.00256 ± 4.04e-06 s⁻¹; in test [1] (isomer Z), 0.0153 ± 2.5e-05 s⁻¹. In addition, the “PPI TW (pull-down, full-length protein)” value in test [2] (E isomer) is given as 90%; in test [2] (Z isomer) it was 60%.
As for `O=P(O)(O)Oc1c2c(c(OP(=O)(O)OCCn3cc(-c4ccc(N=Nc5ccc(-c6cn(CCOP(=O)(O)Oc7c8c(c(OP(=O)(O)O)c9c7C7CC9c9cc%10c(cc97)C7CC%10c9ccccc97)C7CC8c8cc9c(cc87)C7CC9c8ccccc87)nn6)cc5)cc4)nn3)c3c1C1CC3c3cc4c(cc31)C1CC4c3ccccc31)C1CC2c2cc3c(cc21)C1CC3c2ccccc21` [TWAB1], the Kd in test [1] (setting [4]) was 9.32 µM; in test [1] (setting [5]), 9.3 µM; in test [1] (setting [6]) it was 9.2 µM. The same compound registered a ka in test [1] (isomer E) of 596 ± 116 M⁻¹ s⁻¹. Moreover, the kd in test [1] (isomer E) came to 0.000548 ± 2.4e-05 s⁻¹.
As for `Cc1nn(Cc2cn(CCOP(=O)(O)Oc3c4c(c(OP(=O)(O)O)c5c3C3CC5c5cc6c(cc53)C3CC6c5ccccc53)C3CC4c4cc5c(cc43)C3CC5c4ccccc43)nn2)c(C)c1N=Nc1ccc(-c2cn(CCOP(=O)(O)Oc3c4c(c(OP(=O)(O)O)c5c3C3CC5c5cc6c(cc53)C3CC6c5ccccc53)C3CC4c4cc5c(cc43)C3CC5c4ccccc43)nn2)cc1` [TWAAP2], the Kd in test [1] (setting [4]) is 5.67 µM; in test [1] (setting [5]), 5.7 µM; in test [1] (setting [6]), 4.28 µM; in test [1] (setting [7]), 4.3 µM; in test [3] (E isomer), 0.3 µM; in test [3] (Z isomer), 0.3 µM. Moreover, the ka in test [1] (isomer E) was determined as 1170 ± 96.4 M⁻¹ s⁻¹; in test [1] (isomer Z) it was 750 ± 76.2 M⁻¹ s⁻¹. Moreover, the values for the kd in test [1] (isomer E) and in test [1] (isomer Z) were 0.00501 ± 9.88e-07 s⁻¹ and 0.00426 ± 1.03e-06 s⁻¹, respectively.
On to `Cc1nn(-c2ccc(C#Cc3ccc(-c4cn(CCOP(=O)(O)Oc5c6c(c(OP(=O)(O)O)c7c5C5CC7c7cc8c(cc75)C5CC8c7ccccc75)C5CC6c6cc7c(cc65)C5CC7c6ccccc65)nn4)cc3)cc2)c(C)c1N=Nc1ccc(C#Cc2ccc(-c3cn(CCOP(=O)(O)Oc4c5c(c(OP(=O)(O)O)c6c4C4CC6c6cc7c(cc64)C4CC7c6ccccc64)C4CC5c5cc6c(cc54)C4CC6c5ccccc54)nn3)cc2)cc1` [TWAAP4], for which the Kd in test [1] (setting [4]) was 2.9 µM; in test [1] (setting [6]), 1.96 µM; in test [1] (setting [7]), 2 µM; in test [3] (E isomer), 0.8 µM; in test [3] (Z isomer), 4.9 µM. Besides, the ka in test [1] (isomer E) is 4690 ± 1260 M⁻¹ s⁻¹; in test [1] (isomer Z), 3340 ± 688 M⁻¹ s⁻¹. Further, the kd was determined as 0.00918 ± 4.22e-06 s⁻¹ in test [1] (isomer E) and 0.00967 ± 4.04e-06 s⁻¹ in test [1] (isomer Z). The “Loop binding, in words” value in test [3] (Z isomer) is on record as “only a weak loop binder”.
In the case of `Cc1nn(-c2ccc(-n3cc(CCOP(=O)(O)Oc4c5c(c(OP(=O)(O)O)c6c4C4CC6c6cc7c(cc64)C4CC7c6ccccc64)C4CC5c5cc6c(cc54)C4CC6c5ccccc54)nn3)cc2)c(C)c1N=Nc1ccc(-n2cc(CCOP(=O)(O)Oc3c4c(c(OP(=O)(O)O)c5c3C3CC5c5cc6c(cc53)C3CC6c5ccccc53)C3CC4c4cc5c(cc43)C3CC5c4ccccc43)nn2)cc1` [TWAAP0], the Kd in test [1] (setting [4]) stood at 0.71 µM; in test [1] (setting [5]), 0.7 µM; in test [1] (setting [6]) it was 2.87 µM; in test [1] (setting [7]), 2.9 µM; in test [3] (E isomer), 0.2 µM; in test [3] (Z isomer) it was 0.3 µM. Besides, the SPR signal entry in test [1] (E isomer) and in test [1] (Z isomer) was “approximately 300 μRIU” each time. Further, the “association rate constant (ka)” value in test [1] (E isomer) was 1.04 × 10^3 M^1 s^1; in test [1] (Z isomer), 1.12 × 10^3 M^1 s^1. Also, the entries for the “dissociation rate constant (kd)” value in test [1] (E isomer) and in test [1] (Z isomer) were 0.000743 s⁻¹ and 0.00322 s⁻¹, respectively. Moreover, the ka is 1120 ± 34 M⁻¹ s⁻¹ in test [1] (isomer E) and 1040 ± 20.5 M⁻¹ s⁻¹ in test [1] (isomer Z). The kd in test [1] (isomer E) is 0.00322 ± 7.17e-07 s⁻¹.
